For experiment [1], the system named is S. aureus ATCC 13709 (Smith diffuse). Nature of the experiment: Murine lethal bacteremic peritonitis (septicemia) efficacy. It counts as in vivo, mice. To be noted: for responders at 0.312 mg/kg: dose 0.312 mg/kg s.c. at 0 and 2 h post-challenge; for responders at 0.625 mg/kg: dose 0.625 mg/kg s.c. at 0 and 2 h post-challenge; for responders at 1.25 mg/kg: dose 1.25 mg/kg s.c. at 0 and 2 h post-challenge; for responders at 2.5 mg/kg: dose 2.5 mg/kg s.c. at 0 and 2 h post-challenge; for ED50: ATCC13709, mice, S. aureus ATCC 13709 i.p., s.c. at 0 and 2 h post-challenge, probit method; for responders at 0.156 mg/kg: dose 0.156 mg/kg s.c. at 0 and 2 h post-challenge; for responders at 0.078 mg/kg: dose 0.078 mg/kg s.c. at 0 and 2 h post-challenge. The procedure:
10 mice/group were injected intraperitoneally with 2.98×10^7 cfu S. aureus ATCC 13709 (Smith diffuse) and treated at 0 and 2 hrs post-challenge with serial two-fold doses of new cephalosporin antibiotic, imipenem and vancomycin subcutaneously in order to determine the ED50. Male Swiss-Webster mice weighing originally 24.2-26.1 g were obtained from Charles Rivers Labs, Hollister, Calif. Mice were housed 10 per cage and given free access to water and mouse chow.
Staphylococcus aureus ATCC 13709 (Smith diffuse) was grown overnight at 37° C. in Brain-heart Infusion broth (BHIB). The following morning, it was subcultured to fresh BHIB and incubated for 4-5 h at 37° C. The log-phase growth cells were washed once with physiological saline and adjusted to the desired concentration by correlation of absorbency at OD 600 nm with predetermined plate counts (NCCLS, 1994). The cell suspension was mixed with an equal volume of sterile 14% hog-gastric mucin (2). Inoculum was kept in an ice bath until used (<1 h).
Mice were challenged via an injection of 0.5 mL bacterial suspension intraperitoneally. The bacterial challenge was 2.98×10^7 cfu/mouse.
Imipenem (Primaxin IV; Lot 7294A), vancomycin (Vancocin; Lot 8MU60W), and new cephalosporin antibiotic were prepared by serial two-fold dilutions to concentrations of 0.078-0.005 mg/mL, 1.2-0.075 mg/mL, 0.3-0.02 mg/mL, 0.3-0.02 mg/mL and 0.3-0.02 mg/mL respectively in sterile water (1). All antibiotics were administered subcutaneously in 0.1 mL volumes at 0 and 2 hours post-challenge. Concentrations of all compounds are based on the weight of the bioactive ingredients.
The 50% effective dose (ED50) was calculated by the probit method (3) utilizing a program entitled Probit (Nycomed-Salutar).

Experiment [2] concerns S. aureus Col8A (Meth^S)(lac^−). Nature of the experiment: Broth microdilution MIC (NCCLS). It is filed as cell-based. To be noted: Staphylococcus aureus. Put shortly:
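Following NCCLS guidance, compounds were titrated 2-fold in Mueller-Hinton broth against 5×10^5 CFU/mL inocula. After 24 h at 35° C, growth was judged by absorbance at 650 nm and by eye. The MIC was taken as the lowest concentration that stopped growth.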
A general note: Dilution methods test growth across graded concentrations, often in twofold steps.

Setting [3] is: Staphylococcus aureus, ATCC13709, sc, read-out: Efficacy in murine septicemia % survival.
[4] abbreviates: dose 5 mg/kg s.c. at 0 and 2 h post-challenge.

≈ marks a conversion by molar mass, not a printed value.

A word on the ED50: it is the midpoint of the dose-response relation. Lower therefore signals an effect at a small dose. Regarding `N=C(N)NCCSCc1ncccc1SC1=C(C(=O)O)N2C(=O)[C@@H](NC(=O)/C(=N\O)c3nsc(N)n3)[C@H]2SC1` [Cmpd 14, (7R)-7-[(Z)-2-(5-amino-1,2,4-thiadiazol-3-yl)-2-(hydroxyimino)acetamido]-3-[2-(2-guanidinoethylthiomethyl)pyrid-3-ylthio]-3-cephem-4-carboxylic acid], in experiment [1] (setting [3]), the responders at 0.312 mg/kg is 90%, the responders at 0.625 mg/kg was found to be 100%, the responders at 1.25 mg/kg was found to be 100% and the responders at 2.5 mg/kg is 100%. This compound also displayed an ED50 in experiment [1] (Staphylococcus aureus) of less than 0.31 mg/kg. The “Efficacy in murine septicemia % survival” value in experiment [1] (setting [4]) is recorded as 5/100%.
In general, MIC refers to the lowest concentration found to suppress growth. Lower therefore signals a more susceptible organism. On to `NCCSCc1cnccc1SC1=C(C(=O)O)N2C(=O)[C@@H](NC(=O)/C(=N\O)c3cccc(N)n3)[C@H]2SC1` [Cmpd 24, (7R)-7-[(Z)-2-(2-aminopyrid-6-yl)-2-(hydroxyimino)acetamido]-3-[3-(2-aminoethylthiomethyl)pyrid-4-ylthio]-3-cephem-4-carboxylic acid], for which the lowest concentration to inhibit growth in experiment [2] (MIC) was 0.5 µg/mL (≈ 0.89 µM). In addition, in experiment [1] (setting [3]), the responders at 0.625 mg/kg came to 30%, the responders at 1.25 mg/kg stood at 90% and the responders at 2.5 mg/kg worked out at 100%. The compound further returned an ED50 in experiment [1] (Staphylococcus aureus) of 0.76 mg/kg. Also, in experiment [1] (setting [4]), the “Efficacy in murine septicemia % survival” value is given as 5/100%. The “Efficacy in murine septicemia % survival” value in experiment [1] (dose 10 mg/kg s.c. at 0 and 2 h post-challenge) was 10/100%.
In the case of `NCCSCc1ncsc1SC1=C(C(=O)O)N2C(=O)[C@@H](NC(=O)/C(=N\O)c3cccc(N)n3)[C@H]2SC1` [Cmpd 23, (7R)-7-[(Z)-2-(2-aminopyrid-6-yl)-2-(hydroxyimino)acetamido]-3-[4-(2-aminoethylthiomethyl)-1,3-thiazol-5-ylthio]-3-cephem-4-carboxylic acid], in experiment [1] (setting [3]), the responders at 0.312 mg/kg stood at 40%, the responders at 1.25 mg/kg amounted to 100% and the responders at 2.5 mg/kg was 100%. The 50% effect level in experiment [1] (Staphylococcus aureus) (ED50) was put at a dose of 0.39 mg/kg. In experiment [1] (setting [4]), the “Efficacy in murine septicemia % survival” value is recorded as 5/100%.
For `NCCSCc1cnccc1SC1=C(C(=O)O)N2C(=O)[C@@H](NC(=O)/C(=N\O)c3nc(N)sc3Cl)[C@H]2SC1` [Cmpd 20, (7R)-7-[(Z)-2-(2-amino-5-chlorothiazol-4-yl)-2-(hydroxyimino)acetamido]-3-[3-(2-aminoethylthiomethyl)pyrid-4-ylthio]-3-cephem-4-carboxylic acid], in experiment [1] (setting [3]), the responders at 0.156 mg/kg came to 20%, the responders at 0.312 mg/kg came to 10%, the responders at 0.625 mg/kg stood at 30% and the responders at 1.25 mg/kg is 58%. In addition, the responders at 2.5 mg/kg in experiment [1] (setting [3]) was 80%. The same compound had a 50% effective dose (ED50) in experiment [1] (Staphylococcus aureus) of 1 mg/kg.
In the case of `NCCSCc1ncccc1SC1=C(C(=O)O)N2C(=O)[C@@H](NC(=O)/C(=N\O)c3nsc(N)n3)[C@H]2SC1` [Cmpd 17, (7R)-7-[(Z)-2-(5-amino-1,2,4-thiadiazol-3-yl)-2-(hydroxyimino)acetamido]-3-[2-(2-aminoethylthiomethyl)pyrid-3-ylthio]-3-cephem-4-carboxylic acid], the responders at 0.12 mg/kg in experiment [1] (Staphylococcus aureus, ATCC13709, sc, dose 0.12 mg/kg s.c. at 0 and 2 h post-challenge, read-out: Efficacy in murine septicemia % survival) amounted to 10%. In addition, the responders at 0.25 mg/kg in experiment [1] (Staphylococcus aureus, ATCC13709, sc, dose 0.25 mg/kg s.c. at 0 and 2 h post-challenge, read-out: Efficacy in murine septicemia % survival) was determined as 20%. In addition, the responders at 0.5 mg/kg in experiment [1] (Staphylococcus aureus, ATCC13709, sc, dose 0.5 mg/kg s.c. at 0 and 2 h post-challenge, read-out: Efficacy in murine septicemia % survival) came to 50%. The responders at 1 mg/kg in experiment [1] (Staphylococcus aureus, ATCC13709, sc, dose 1.0 mg/kg s.c. at 0 and 2 h post-challenge, read-out: Efficacy in murine septicemia % survival) came to 100%. Also, in experiment [1] (Staphylococcus aureus, ATCC13709, sc, dose 2.0 mg/kg s.c. at 0 and 2 h post-challenge, read-out: Efficacy in murine septicemia % survival), the responders at 2 mg/kg turned out to be 100%. The same compound showed an ED50 in experiment [1] (Staphylococcus aureus) of 0.39 mg/kg.
On to `N=C(N)NCCSCc1cnccc1SC1=C(C(=O)O)N2C(=O)[C@@H](NC(=O)/C(=N\O)c3nsc(N)n3)[C@H]2SC1` [Cmpd 25, (7R)-7-[(Z)-2-(5-amino-1,2,4-thiadiazol-3-yl)-2-(hydroxyimino)acetamido]-3-[3-(2-guanidinoethylthiomethyl)pyrid-4-ylthio]-3-cephem-4-carboxylic acid], for which, in experiment [1] (setting [3]), the responders at 0.312 mg/kg worked out at 80%, the responders at 0.625 mg/kg was 100%, the responders at 1.25 mg/kg was found to be 100% and the responders at 2.5 mg/kg was found to be 100%. The compound further returned a 50% effective dose (ED50) in experiment [1] (Staphylococcus aureus) of less than 0.31 mg/kg. Moreover, the “Efficacy in murine septicemia % survival” value in experiment [1] (setting [4]) is 5/100%.
As to `NCCSCc1cnccc1SC1=C(C(=O)O)N2C(=O)C(NC(=O)/C(=N\O)c3csc(N)n3)C2SC1` (stereo not drawn) [Cmpd 19], in experiment [1] (setting [3]), the responders at 0.078 mg/kg stood at 20%, the responders at 0.156 mg/kg came to 20%, the responders at 0.312 mg/kg worked out at 20% and the responders at 0.625 mg/kg came to 80%. The responders at 1.25 mg/kg in experiment [1] (setting [3]) came out at 100%.
Turning to `NCCSCc1ncccc1SC1=C(C(=O)O)N2C(=O)[C@@H](NC(=O)/C(=N\O)c3nc(N)sc3Cl)[C@H]2SC1` [Cmpd 13, (7R)-7-[(Z)-2-(2-amino-5-chlorothiazol-4-yl)-2-(hydroxyimino)acetamido]-3-[2-(2-aminoethylthiomethyl)pyrid-3-ylthio]-3-cephem-4-carboxylic acid], in experiment [1] (setting [3]), the responders at 0.625 mg/kg was 100%, the responders at 1.25 mg/kg is 100% and the responders at 2.5 mg/kg is 100%. Also, in experiment [1] (setting [4]), the “Efficacy in murine septicemia % survival” value is listed as 5/100%.
For `NCCSCc1nc(N)sc1SC1=C(C(=O)O)N2C(=O)[C@@H](NC(=O)/C(=N\O)c3nc(N)sc3Cl)[C@H]2SC1` [Cmpd 3, (7R)-7-[(Z)-2-(2-amino-5-chlorothiazol-4-yl)-2-(hydroxyimino)acetamido]-3-[4-(2-aminoethylthiomethyl)-2-amino-1,3-thiazol-5-ylthio]-3-cephem-4-carboxylic acid], in experiment [1] (setting [3]), the responders at 0.078 mg/kg came out at 30%, the responders at 0.312 mg/kg was found to be 50%, the responders at 0.625 mg/kg turned out to be 90% and the responders at 1.25 mg/kg is 90%. In experiment [1] (setting [3]), the responders at 2.5 mg/kg was determined as 100%. Further, in experiment [1] (Staphylococcus aureus, ATCC13709, sc, dose 0.165 mg/kg s.c. at 0 and 2 h post-challenge, read-out: Efficacy in murine septicemia % survival), the responders at 0.165 mg/kg was 40%. The same compound registered a 50% effective dose (ED50) in experiment [1] (Staphylococcus aureus) of 0.39 mg/kg.
Regarding `NCCSCc1ccncc1SC1=C(C(=O)O)N2C(=O)[C@@H](NC(=O)/C(=N\O)c3nc(N)sc3Cl)[C@H]2SC1` [Cmpd 21, (7R)-7-[(Z)-2-(2-amino-5-chlorothiazol-4-yl)-2-(hydroxyimino)acetamido]-3-[4-(2-aminoethylthiomethyl)pyrid-3-ylthio]-3-cephem-4-carboxylic acid], in experiment [1] (setting [3]), the responders at 0.312 mg/kg turned out to be 0%, the responders at 0.625 mg/kg came out at 0%, the responders at 1.25 mg/kg stood at 70% and the responders at 2.5 mg/kg turned out to be 80%. Besides, the ED50 in experiment [1] (Staphylococcus aureus) was 0.79 mg/kg.
Consider `NCCSCc1cnccc1SC1=C(C(=O)O)N2C(=O)[C@@H](NC(=O)/C(=N\O)c3nsc(N)n3)[C@H]2SC1` [Cmpd 18, (7R)-7-[(Z)-2-(5-amino-1,2,4-thiadiazol-3-yl)-2-(hydroxyimino)acetamido]-3-[3-(2-aminoethylthiomethyl)pyrid-4-ylthio]-3-cephem-4-carboxylic acid], for which, in experiment [1] (setting [3]), the responders at 0.312 mg/kg is 30%, the responders at 0.625 mg/kg is 60%, the responders at 1.25 mg/kg was 100% and the responders at 2.5 mg/kg is 100%. The compound also registered an ED50 in experiment [1] (Staphylococcus aureus) of 0.46 mg/kg. The “Efficacy in murine septicemia % survival” value in experiment [1] (setting [4]) is on record as 5/100%.

The values are drawn from patent publication US6723716B1, “7-acylamino-3-heteroarylthio-3-cephem carboxylic acid antibiotics and prodrugs thereof” (Essential Therapeutics, Inc., priority 1999, dated 2004).
